The results in this text go back to BindingDB's records for patent US12240838 (Biogen Ma, 2025).

In this assay the target is Tyrosine-protein kinase BTK (Homo sapiens, UniProt Q06187). In words: In Vitro BTK Kinase Assay. How it is done:
The purpose of the BTK in vitro assay is to determine compound potency against BTK through the measurement of IC50. […] For a typical assay, a 24 μL aliquot of a ATP/peptide master mix (final concentration; ATP 10 μM, polyGAT 100 nM) in kinase buffer (10 mM Tris-HCl pH 7.5, 10 mM MgCl2, 200 μM Na3PO4, 5 mM DTT, 0.01% Triton X-100, and 0.2 mg/ml casein) is added to each well. […] The assay is incubated for 30 minutes before being stopped with […] of a 50 mM EDTA solution. […] The plate is covered and incubated for 45 minutes at room temperature.

Tyrosine-protein kinase BTK, sequence (Q06187 whole entry): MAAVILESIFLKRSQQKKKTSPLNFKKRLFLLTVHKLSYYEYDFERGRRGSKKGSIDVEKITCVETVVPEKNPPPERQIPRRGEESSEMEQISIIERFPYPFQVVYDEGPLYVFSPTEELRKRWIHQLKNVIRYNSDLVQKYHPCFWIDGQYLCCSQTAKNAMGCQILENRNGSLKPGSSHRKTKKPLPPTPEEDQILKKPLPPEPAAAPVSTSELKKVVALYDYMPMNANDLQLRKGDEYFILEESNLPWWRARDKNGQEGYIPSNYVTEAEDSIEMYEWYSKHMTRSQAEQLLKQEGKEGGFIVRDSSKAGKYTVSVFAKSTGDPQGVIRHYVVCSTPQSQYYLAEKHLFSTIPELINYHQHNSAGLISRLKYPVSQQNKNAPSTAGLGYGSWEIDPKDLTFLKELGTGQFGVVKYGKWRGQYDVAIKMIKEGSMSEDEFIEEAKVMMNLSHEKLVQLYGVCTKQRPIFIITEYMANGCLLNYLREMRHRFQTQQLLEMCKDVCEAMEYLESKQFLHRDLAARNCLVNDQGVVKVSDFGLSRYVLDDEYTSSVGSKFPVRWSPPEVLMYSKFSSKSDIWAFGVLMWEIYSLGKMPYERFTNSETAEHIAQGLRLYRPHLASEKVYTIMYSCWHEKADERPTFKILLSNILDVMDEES

Compound `CC(C)(C)c1nc(C(=O)NCc2cc(F)c(-c3ccnc(NC(=O)C4CC4)c3)cc2C(F)(F)F)no1` [US12240838, Compound 62] registered an IC50 of less than 1 nM.
